Read-outs that look alike come from different tables or passages of the source.
Key:
[1] = 7.3 Pharmacokinetic characterization, single or repeated oral administration, cynomolgus monkeys; details: cynomolgus monkey, in vivo, PO dosing in NHP
Text: 7.3 Pharmacokinetic Characterization of Compound A following Single or Repeated Oral Administrations to Male and Female Cynomolgus Monkeys
The objective of this study is to determine the pharmacokinetics of Compound A following single or repeated oral administrations of Compound A in male and female cynomolgus monkeys. The test article will be measured in plasma at selected time points for up to 14 days post dosing.
Formulation: 10% HP-β-CD in water at pH 3.5 (w/v) in water at pH 3.5 (w/v) • Prepare the 10% HP-β-CD vehicle on a (w/v) basis • Add compound with stirring. • Heat to ˜50 C for 10 minutes. […]
LC-MS/MS method development: • 1. A LC-MS/MS method for the quantitative determination of test compound in biological matrix will be developed under non-GLP compliance. • 2. […] N in 1 cassette LC-MS/MS method can be developed for samples coming from different studies as long as these studies belong to same sponsor and the interference among all cassette analytes will be evaluated during the method development. • 5. […] If such kind cassette assay is still requested by the study sponsor, interference between analytes will not be evaluated but the LC separation of those analytes by using a generic method will be tried. […] Biological sample in matrix other than plasma can be diluted with plasma first and then quantified against plasma calibration curve. […]

[2] = Human dose prediction by matching AUCs with intermittent dosing regimens in mice models; details: mouse, read-out: Weekly AUC
Procedure: Human dose predictions from intermittent dosing supports dose targets for both IV and PO dosing.
IV formulation up to 300 mg/dose is feasible (exposure for efficacy is 100-300 mg/dose). Dosing to ≥400 mg likely possible (>80% POS based on initial formulation assessment). Projected PO upper dose of 900 mg/day is feasible. May be divided into BID dosing to achieve exposure. High pill burden or unusual formulation strategy (e.g., mix and drink) may be needed. PO versus IV dosing in compared in Table 14.

[3] = test system: OCI-LY10 human diffuse large B-cell lymphoma model; assay: Combination xenograph studies in OCI-LY10 model; assay type: in vivo, mouse
Procedure: Study Purpose: The objective was to evaluate the efficacy of Compound A combinations in the OCI-LY10 human diffuse large B-cell lymphoma model in female CB-17 SCID mice.
Cell Culture: The OCI-LY10 tumor cells were maintained as a suspension in RPMI1640 medium supplemented with 10% fetal bovine serum and 100 μg/mL penicillin/100 μg/mL streptomycin (study 1) or 1% Antibiotic-Antimycotic (study 2) at 37° C. in an atmosphere of 5% CO2 in air. The tumor cells were routinely subcultured twice weekly by trypsin-EDTA treatment. The cells growing in an exponential growth phase were harvested and counted for tumor inoculation.
Animals: CB-17 SCID, female, 6-8 weeks, weighing approximately 18-22 g. In total of 56 animals (study 1) and 66 animals (study 2) were used in the study.
Tumor Inoculation: Each mouse was inoculated subcutaneously at the right flank with OCI-LY10 tumor cells (10×10^6) in 0.2 mL of PBS with matrigel for tumor development. The treatments were started when the tumor sizes reach 100 mm^3 for the study.
3 days prior to treatment initiation, augment diet gel/supplement to all study animals. Compound are diluted to required dosing volume with 0.9% saline
R-CHOP Dosing Sequence: Rituxan, IP; Doxorubicin, IV 15 min post Rituxan; Vincristine, IV 15 min post Doxorubicin; Cyclophosphamide, IV 15 min post Vincristine; Prednisone, PO 15 min post Cyclophosphamide.
Assignment to Groups: Before commencement of treatment, all animals were weighed and the tumor volumes measured. Since the tumor volume can affect the compound efficacy, mice were assigned into groups using an Excel-based randomization procedure performing stratified randomization based upon their tumor volumes.

## CC(C)(O)c1cc2nc([C@H]3CC[C@H](CN4CC5(CC(CCNc6cccc7c6C(=O)N(C6CCC(=O)NC6=O)C7=O)C5)C4)CC3)sc2cc1NC(=O)c1cccc(C(F)(F)F)n1 (stereo partly drawn) [Compound A, N-(2-((1r,4r)-4-((6-(2-((2-(2,6-dioxopiperidin-3-yl)-1,3-dioxoisoindolin-4-yl)amino)ethyl)-2-azaspiro[3.3]heptan-2-yl)methyl)cyclohexyl)-5-(2-hydroxypropan-2-yl)benzo[d]thiazol-6-yl)-6-(trifluoromethyl)picolinamide]
[1]; schedule D1, D4, read-out: Target exposure Range (Ly10-DHL2) AUC0-168
  Target AUC0-168 exposure range: 7 to 18 µM·h
[1]; schedule D1, read-out: Target exposure Range (Ly10-DHL2) AUC0-168
  Target AUC0-168 exposure range: 18 to 54 µM·h
[2]; 3 mg/kg, OCI-Ly10 model, IV 3 mpk BIW
  AUC: 12 µM·h
[2]; 10 mg/kg, OCI-Ly10 model, PO 10 mpk BIW
  AUC: 7 µM·h
[2]; 12 mg/kg, OCI-Ly10 model, IV 12 mpk QW
  AUC at 1 week: 24 µM·h
[2]; 30 mg/kg, DHL2 model, PO 30 mpk BIW
  AUC: 18 µM·h
[2]; 30 mg/kg, OCI-Ly10 model, PO 30 mpk QW
  AUC at 1 week: 18 µM·h
[2]; DHL2 model, IV ~10 (est.) mpk BIW, estimated
  AUC: ~36 µM·h
[3]; mutant MYD88 OCI-Ly10 xenographs, Bliss independent method, FIG. 11
  combination effect with venetoclax: supra-additive
[3]; mutant MYD88 OCI-Ly10 xenographs, Bliss independent method, FIG. 12 upper graph
  combination effect with rituximab: supra-additive
[3]; mutant MYD88 OCI-Ly10 xenographs, intermittent schedules, FIG. 10
  combination effect with ibrutinib: additive
[3]; tumors that relapsed following initial R-CHOP treatment, FIG. 12 lower graph
  combination with rituximab in relapsed tumors: strong tumor regressions

Source: patent publication US11857535B2, “Methods of treating mutant lymphomas” (Kymera Therapeutics, Inc., priority 2020, dated 2024)
